Experimental data reported in US20160213742A1, “COMPOSITIONS AND METHODS FOR THE TREATMENT OF FUNGAL INFECTIONS” (priority 2013, published 2016).
Values after ≈ are worked out from the molar mass of the structure shown.

Experiments:
Type in all cases: cell-based
C. glabrata ATCC 90030 = experiment: microbe, parasite or virus in culture
Protocol: (§1) The test organisms consisted of strains from the Micromyx collection. Reference isolates were originally received from the American Type Culture Collection (ATCC; Manassas, Va.). Organisms received at Micromyx were initially streaked for isolation on Sabouraud dextrose or potato dextrose agar. Colonies were picked by swab from the medium and resuspended in the appropriate broth containing cryoprotectant. The suspensions were aliquoted into cryogenic vials and maintained at −80° C. Prior to testing, Candida isolates were streaked from the frozen vials on Sabouraud dextrose agar. The yeast isolates were incubated at overnight at 35° C. before use. The fungal isolates were incubated at least 7 days on Sabouraud dextrose agar slants at 35° C. before harvesting.
(§2) Isolates were tested in RPMI medium (Catalog No. SH30011.04; Lot No. AWA92121B; HyClone Labs, Logan, Utah) which was prepared according to CLSI guidelines. The pH of the medium was adjusted to 7.0 with 1 N NaOH. The medium was sterile filtered using a 0.2 μm PES filter and stored at 4° C. until used.
(§3) The MIC assay method employed automated liquid handlers to conduct serial dilutions and liquid transfers. Automated liquid handlers included the Multidrop 384 (Labsystems, Helsinki, Finland), Biomek 2000 and Biomek FX (Beckman Coulter, Fullerton Calif.). The wells in columns 2-12 in standard 96-well microdilution plates (Costar 3795) were filled with 150 μl of the correct diluent (50% DMSO for investigational compounds, 100% DMSO for comparator compounds). These would become the mother plates' from which ‘daughter’ or test plates would be prepared. Stocks were diluted to 40× the desired top concentration in the test plates in the indicated solvent, and 300 μL of the 40× stock was dispensed into the appropriate well in Column 1 of the mother plates. The Biomek 2000 was used to make serial serial 2-fold dilutions through Column 11 in the “mother plate”. The wells of Column 12 contained no drug and served as the organism growth control wells.
(§4) The daughter plates were loaded with 185 μL per well of RPMI described above using the Multidrop 384. The daughter plates were prepared using the Biomek FX which transferred 5 μL of drug solution from each well of a mother plate to the corresponding well of the daughter plate in a single step.
(§5) A standardized inoculum of each organism was prepared. For Candida, colonies were picked from the streak plate and a suspension was prepared in RPMI medium equal to a 0.5 McFarland standard, then diluted 1:100 in RPMI and transferred to compartments of sterile reservoirs divided by length (Beckman Coulter). For the Aspergillus isolates, previously prepared and quantitated suspensions were used to make dilutions in RPMI to reach 20× the final concentration. These dilutions were also transferred to compartments of sterile reservoirs divided by length (Beckman Coulter). The final concentration of the Aspergillus isolates was approximately 0.2-2.5×10^4 CFU/mL.
(§6) The Biomek 2000 was used to inoculate the plates. Daughter plates were placed on the Biomek 2000 work surface reversed so that inoculation took place from low to high drug concentration. The Biomek 2000 delivered 10 μL of standardized inoculum into each well. Thus, the wells of the daughter plates ultimately contained 185 μL of RPMI, 5 μL of drug solution, and 10 μL of inoculum. The final concentration of DMSO in the test well was 2.5% for the evaluated comparators and 1.25% for the investigational agents.
(§7) Plates were stacked 3 high, covered with a lid on the top plate, placed into plastic bags, and incubated at 35° C. for approximately 24-48 hr prior to reading. Plates were read when inoculum was confluent in growth wells. Plates were viewed from the bottom using a plate viewer. […] MICs were read where visible growth of the organism was inhibited. MECs were read where the growth shifted to a small, rounded, compact hyphal form as compared to the hyphal growth seen in the growth control well.

C. albicans ATCC 90028 = experiment: microbe, parasite or virus in culture
Protocol: as §1, §2, §3, §4, §5, §6, §7

[1] = test system: C. parapsilosis ATCC 22019; experiment: microbe, parasite or virus in culture
Protocol: as §1, §2, §3, §4, §5, §6, §7

C. krusei ATCC 14243 = experiment: microbe, parasite or virus in culture
Protocol: as §1, §2, §3, §4, §5, §6, §7

A. fumigatus MYA-4609 = experiment: MEC assay (Example 31); conditions: RPMI pH 7.0, 35° C., 24-48 hr
Protocol: as §1, §2, §3, §4, §5, §6, §7

A. fumigatus MYA-3626 = experiment: MEC assay (Example 31); conditions: RPMI pH 7.0, 35° C., 24-48 hr
Protocol: as §1, §2, §3, §4, §5, §6, §7

A. flavus MX 5948 = experiment: MEC assay (Example 31); conditions: RPMI pH 7.0, 35° C., 24-48 hr
Protocol: as §1, §2, §3, §4, §5, §6, §7

A. fumigatus ATCC 13073 = experiment: MEC assay (Example 31); conditions: RPMI pH 7.0, 35° C., 24-48 hr
Protocol: as §1, §2, §3, §4, §5, §6, §7

A. fumigatus MX 5944 = experiment: MEC assay (Example 31); conditions: RPMI pH 7.0, 35° C., 24-48 hr
Protocol: as §1, §2, §3, §4, §5, §6, §7

[2] = C. parapsilosis ATCC 22019, RPMI pH 7.0, 35° C., 24-48 hr

SMILES	MIC (C. glabrata ATCC 90030; ATCC 90030, pH 7) [µg/mL]	MIC (C. albicans ATCC 90028; ATCC 90028, pH 7) [µg/mL]	MIC ([1]; ATCC 22019, pH 7) [µg/mL]	MIC (C. krusei ATCC 14243; ATCC 14243, pH 7) [µg/mL]	MIC [1, 2] [µg/mL]	MEC (A. fumigatus MYA-4609) [µg/mL]	MEC (A. fumigatus MYA-3626) [µg/mL]	MEC (A. flavus MX 5948) [µg/mL]	MEC (A. fumigatus ATCC 13073) [µg/mL]	MEC (A. fumigatus MX 5944) [µg/mL]	MIC (C. glabrata ATCC 90030; C. glabrata ATCC 90030, RPMI pH 7.0, 35° C., 24-48 hr) [µg/mL]	MIC (C. albicans ATCC 90028; C. albicans ATCC 90028, RPMI pH 7.0, 35° C., 24-48 hr) [µg/mL]	MIC (C. krusei ATCC 14243; C. krusei ATCC 14243, RPMI pH 7.0, 35° C., 24-48 hr) [µg/mL]
CC[C@H](C)C[C@H](C)CCCCCCCCC(=O)N[C@H]1C[C@@H](O)[C@@H](NCCN)NC(=O)[C@@H]2[C@@H](O)CCN2C(=O)[C@H]([C@H](O)CCNC(=O)[C@H](CCCCN)NC=O)NC(=O)[C@H]([C@H](O)[C@@H](O)c2ccc(O)cc2)NC(=O)[C@@H]2C[C@@H](O)CN2C(=O)[C@H]([C@@H](C)O)NC1=O [Compound 25]	0.5 (≈ 0.4 µM)	0.12 (≈ 0.096 µM)	1 (≈ 0.8 µM)	2 (≈ 1.6 µM)									
CC[C@H](C)C[C@H](C)CCCCCCCCC(=O)N[C@H]1C[C@@H](O)[C@@H](NCCNC(=O)CCNC(=O)[C@H](Cc2ccccc2)NC(=O)[C@H](CC(C)C)NC(=O)[C@H](CCSC)NC(=O)OCC(C)C)NC(=O)[C@@H]2[C@@H](O)CCN2C(=O)[C@H]([C@H](O)CCN)NC(=O)[C@H]([C@H](O)[C@@H](O)c2ccc(O)cc2)NC(=O)[C@@H]2C[C@@H](O)CN2C(=O)[C@H]([C@@H](C)O)NC1=O [Compound 6]	4 (≈ 2.42 µM)	2 (≈ 1.21 µM)	>16	8 (≈ 4.83 µM)									
CC[C@H](C)C[C@H](C)CCCCCCCCC(=O)N[C@H]1C[C@@H](O)[C@@H](NCCNC(=O)C(Cc2ccccc2)NC(=O)C(CC(C)C)NC(=O)C(CCSC)NC(=O)Nc2ccc(Cl)cc2)NC(=O)[C@@H]2[C@@H](O)CCN2C(=O)[C@H]([C@H](O)CCN)NC(=O)[C@H]([C@H](O)[C@@H](O)c2ccc(O)cc2)NC(=O)[C@@H]2C[C@@H](O)CN2C(=O)[C@H]([C@@H](C)O)NC1=O (stereo partly shown) [Compound 13a]					32 (≈ 19.5 µM)						8 (≈ 4.88 µM)	2 (≈ 1.22 µM)	16 (≈ 9.77 µM)

Now from value to compound, other results behind:

MIC (C. glabrata ATCC 90030; ATCC 90030, pH 7) [µg/mL]	MIC (C. albicans ATCC 90028; ATCC 90028, pH 7) [µg/mL]	MIC ([1]; ATCC 22019, pH 7) [µg/mL]	MIC (C. krusei ATCC 14243; ATCC 14243, pH 7) [µg/mL]	SMILES	MIC [1, 2] [µg/mL]	MEC (A. fumigatus MYA-4609) [µg/mL]	MEC (A. fumigatus MYA-3626) [µg/mL]	MEC (A. flavus MX 5948) [µg/mL]	MEC (A. fumigatus ATCC 13073) [µg/mL]	MEC (A. fumigatus MX 5944) [µg/mL]	MIC (C. glabrata ATCC 90030; C. glabrata ATCC 90030, RPMI pH 7.0, 35° C., 24-48 hr) [µg/mL]	MIC (C. albicans ATCC 90028; C. albicans ATCC 90028, RPMI pH 7.0, 35° C., 24-48 hr) [µg/mL]	MIC (C. krusei ATCC 14243; C. krusei ATCC 14243, RPMI pH 7.0, 35° C., 24-48 hr) [µg/mL]
4 (≈ 2.42 µM)	2 (≈ 1.21 µM)	>4	>4	CC[C@H](C)C[C@H](C)CCCCCCCCC(=O)N[C@H]1C[C@@H](O)[C@@H](NCCN)NC(=O)[C@@H]2[C@@H](O)CCN2C(=O)[C@H]([C@H](O)CCNC(=O)CCNC(=O)[C@H](Cc2ccccc2)NC(=O)[C@H](CC(C)C)NC(=O)[C@H](CCSC)NC(=O)OCC(C)C)NC(=O)[C@H]([C@H](O)[C@@H](O)c2ccc(O)cc2)NC(=O)[C@@H]2C[C@@H](O)CN2C(=O)[C@H]([C@@H](C)O)NC1=O [Compound 5]									
8 (≈ 5.05 µM)	2 (≈ 1.26 µM)			CC[C@H](C)C[C@H](C)CCCCCCCCC(=O)N[C@H]1C[C@@H](O)[C@@H](OCCNC(=O)CCNC(=O)[C@H](Cc2ccccc2)NC(=O)[C@H](CC(C)C)NC(=O)[C@H](CCSC)NC=O)NC(=O)[C@@H]2[C@@H](O)CCN2C(=O)[C@H]([C@H](O)CCN)NC(=O)[C@H]([C@H](O)[C@@H](O)c2ccc(O)cc2)NC(=O)[C@@H]2C[C@@H](O)CN2C(=O)[C@H]([C@@H](C)O)NC1=O [Compound 9]	>16 to 32	0.06 to 0.5	0.12	0.06 to 0.12	0.06 to 0.12	0.12			
32 (≈ 18.4 µM)	2 (≈ 1.15 µM)	>32	>32	CC[C@H](C)C[C@H](C)CCCCCCCCC(=O)N[C@H]1C[C@@H](O)[C@@H](NCCN)NC(=O)[C@@H]2[C@@H](O)CCN2C(=O)[C@H]([C@H](O)CCNC(=O)CCC(=O)NCCOCCOCCNC(=O)[C@H](Cc2ccccc2)NC(=O)[C@H](CC(C)C)NC(=O)[C@H](CCSC)NC=O)NC(=O)[C@H]([C@H](O)[C@@H](O)c2ccc(O)cc2)NC(=O)[C@@H]2C[C@@H](O)CN2C(=O)[C@H]([C@@H](C)O)NC1=O [Compound 16]									
